Data from US20260284069A1, “PARG INHIBITORY COMPOUNDS” (FoRx Therapeutics AG, priority 2023, published 2026).
Counter-ions that a name gives are not always drawn. Like-named read-outs stand apart in the source and are kept apart here.

Columns and labels:
human PARG = molecular target: T1, human PARG (Homo sapiens, UniProt Q86W56, A967T/C963S/D927K/H446G/I916T/L447S/L473S/M841I/N479S/R811K/S802A/S858P/T924D); assay: PARG enzymatic IC50 assay; assay type: biochemical; conditions: PARG protein, 2 hours incubation; substrate ADP-ribose-pNP, absorbance 405 nm; read-out: IC50 determined in PARG enzymatic assay
T1 construct: human PARG (448-976 [H446G, L447S, L473S); 6His-TwinStrep (protease-cleavable) (N, cleaved yes); Gly-Ser at positions 446-447, given as H446G, L447S; host or cells: E. coli BL21 (DE3)
T1 sequence (Q86W56 446-976 H446G/L447S/L473S/N479S/S802A/R811K/M841I/S858P/I916T/T924D/D927K/C963S/A967T): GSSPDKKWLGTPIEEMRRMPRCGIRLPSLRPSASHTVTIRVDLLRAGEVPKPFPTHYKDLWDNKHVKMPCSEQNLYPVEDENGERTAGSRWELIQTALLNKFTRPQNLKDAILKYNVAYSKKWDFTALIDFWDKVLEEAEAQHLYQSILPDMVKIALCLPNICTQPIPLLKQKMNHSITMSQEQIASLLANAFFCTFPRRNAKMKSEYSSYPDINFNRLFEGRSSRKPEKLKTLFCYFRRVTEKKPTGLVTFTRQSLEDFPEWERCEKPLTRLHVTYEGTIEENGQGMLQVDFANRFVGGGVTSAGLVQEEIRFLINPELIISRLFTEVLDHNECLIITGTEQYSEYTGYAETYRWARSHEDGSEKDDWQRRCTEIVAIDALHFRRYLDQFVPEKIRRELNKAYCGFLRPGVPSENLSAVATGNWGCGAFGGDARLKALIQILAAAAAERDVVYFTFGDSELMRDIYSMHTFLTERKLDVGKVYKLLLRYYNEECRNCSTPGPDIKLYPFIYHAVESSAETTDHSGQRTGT
Procedure: A codon optimized gene encoding human PARG (448-976 [H446G, L447S, L473S, N479S, S802A, R811K, M841I, S858P, I916T, T924D, D927K, C963S, A967T]) was synthesized by Genscript, and cloned into pET15b (NcoI/BamHI) with an N-terminal, […] protease cleavable 6His-TwinStrep tag. Expression of the protein in E. coli BL21 (DE3) was induced by addition of 0.2 mM IPTG to a shake flask culture grown to OD600=0.8 at 37° C. Growth was allowed to continue at 30° C. for a further 20 hours before harvesting by centrifugation and storage of the cell pellet at −80° C.
Protein was purified by IMAC and SEC: frozen cell pellets (typically 40 g wet weight) were resuspended by homogenization in 5 volumes buffer A (25 mM Tris/HCl pH 8.0, 200 mM NaCl, 2 mM DTT), supplemented with 1 mg of DNase I from bovine pancreas (Sigma-Aldrich) and protease inhibitors (Roche Complete™ EDTA-free protease inhibitor tablet), and lysed by passage through a Constant Systems BasicZ homogenizer. The lysate was clarified by centrifugation for 60 minutes at 25,000 g, 4° C., and the lysate supernatant was loaded onto 5 ml StrepTrap HP (Cytiva) pre-equilibrated with buffer A. The column was washed with buffer A (~10 CV), then buffer B containing 1M KCl (~5 CV), and then the protein was eluted with buffer A containing 2.5 mM d-Desthiobiotin. Pooled fractions containing 6HisTwinStrep-TEV-hPARG were incubated with TEV protease overnight at 4° C. hPARG was separated from uncleaved material and […] protease through gel filtration with Superdex75 sizing column (GE Healthcare) pre-equilibrated with SEC buffer (15 mM Tris/HCl pH 8.5, 100 mM NaCl, 2 mM DTT). Pooled fractions containing pure hPARG were concentrated using a 10 k MWCO spin concentrator (VivaSpin) to 10 mg/mL, and then either used immediately for crystallisation or snap-frozen in liquid nitrogen for storage at −80° C.
PARG enzyme as incubated with compound or vehicle (DMSO) for 2 hours in a 384 well plate. After adding the PARG substrate ADP-ribose-pNP, the plate was read for absorbance intensity at 405 nm. The vehicle (DMSO) with high absorbance intensity represents no inhibition of enzymatic reaction while the low control (no enzyme) with low absorbance intensity represents full inhibition of enzymatic reaction.
• hPARG: Peak Protein, 30 nM • Substrate: ADP-pNP, 800 μM, Jena Bioscience catalog #NU-955 • Reaction time: 60 minutes • Assay buffer: 50 mM Tris-HCl pH 8.0, 100 mM NaCl, 2 mM DTT • Temperature: 30° C. • Total volume: 30 μL
• 0% inhibition control: DMSO • 100% inhibition control: No enzyme
The protocol that was used for enzyme reaction and detection is as follows: • 1. Transfer 100 nL of the final concentration of test compounds or vehicle (DMSO) to the appropriate wells of a microtiter plate. • 2. Centrifuge the plate at 1000 rpm for 1 minute. • 3. Transfer 14.6 μL of 2× final concentration of enzyme in assay buffer or assay buffer alone to the appropriate wells. • 4. Centrifuge the plate at 1000 rpm for 1 minute. • 5. Incubate the plate at room temperature for 15 minutes or 2 hours. • 6. Transfer 15.4 μL of 2× substrate in assay buffer to all the test wells. • 7. Centrifuge the plate at 1000 rpm for 1 minute. • 8. Read the plate on a plate reader (e.g., Spark Tecan).

U2OS cells = assay: Cellular viability assay (U2OS, PARG-inhibition insensitive cell line); assay type: cell-based; conditions: 96 hours incubation, Cell Titer-Glo, read-out: EC50 determined in U2OS cells, cellular viability assay
Procedure: (§1) NCIH-460 as a PARG-inhibition sensitive cell line and U2OS as PARG-inhibition insensitive cell line were plated at 1000 cells/well and 2000 cells/well, respectively, in 96-well white plates with clear flat bottom. After 24 hours, the compounds were added with the Tecan digital dispenser (D300e), in duplicates. The outer wells of the plate were excluded. After 96 hours of incubation, 150 μl of the growth medium were removed and 50 μl of Cell Titer-Glo (Promega) were added per well. Following an incubation of 10 minutes, luminescence was read using a plate reader (Tecan). Averaged values of the samples were normalized to DMSO treated control samples. Curves were fit as % of the control vs. log of the compound concentration using a 4 parameter log-logistic function: […]

NCIH-460 cells = assay: Cellular viability assay (NCIH-460, PARG-inhibition sensitive cell line); assay type: cell-based; conditions: Cell Titer-Glo, read-out: EC50 determined in NCIH-460 cells, cellular viability assay
Procedure: as §1

PARG = molecular target: T2, PARG (Homo sapiens, UniProt Q86W56); assay: Cellular PAR chain assay; assay type: cell-based; conditions: U2OS cells, 1 hour compound pretreatment then 1-hour TMZ treatment; % PAR chain positive cells by flow cytometry; read-out: EC50 determined in cellular PAR chain assay
T2 construct: endogenous in cells; host or cells: U2OS
T2 sequence (Q86W56 whole entry): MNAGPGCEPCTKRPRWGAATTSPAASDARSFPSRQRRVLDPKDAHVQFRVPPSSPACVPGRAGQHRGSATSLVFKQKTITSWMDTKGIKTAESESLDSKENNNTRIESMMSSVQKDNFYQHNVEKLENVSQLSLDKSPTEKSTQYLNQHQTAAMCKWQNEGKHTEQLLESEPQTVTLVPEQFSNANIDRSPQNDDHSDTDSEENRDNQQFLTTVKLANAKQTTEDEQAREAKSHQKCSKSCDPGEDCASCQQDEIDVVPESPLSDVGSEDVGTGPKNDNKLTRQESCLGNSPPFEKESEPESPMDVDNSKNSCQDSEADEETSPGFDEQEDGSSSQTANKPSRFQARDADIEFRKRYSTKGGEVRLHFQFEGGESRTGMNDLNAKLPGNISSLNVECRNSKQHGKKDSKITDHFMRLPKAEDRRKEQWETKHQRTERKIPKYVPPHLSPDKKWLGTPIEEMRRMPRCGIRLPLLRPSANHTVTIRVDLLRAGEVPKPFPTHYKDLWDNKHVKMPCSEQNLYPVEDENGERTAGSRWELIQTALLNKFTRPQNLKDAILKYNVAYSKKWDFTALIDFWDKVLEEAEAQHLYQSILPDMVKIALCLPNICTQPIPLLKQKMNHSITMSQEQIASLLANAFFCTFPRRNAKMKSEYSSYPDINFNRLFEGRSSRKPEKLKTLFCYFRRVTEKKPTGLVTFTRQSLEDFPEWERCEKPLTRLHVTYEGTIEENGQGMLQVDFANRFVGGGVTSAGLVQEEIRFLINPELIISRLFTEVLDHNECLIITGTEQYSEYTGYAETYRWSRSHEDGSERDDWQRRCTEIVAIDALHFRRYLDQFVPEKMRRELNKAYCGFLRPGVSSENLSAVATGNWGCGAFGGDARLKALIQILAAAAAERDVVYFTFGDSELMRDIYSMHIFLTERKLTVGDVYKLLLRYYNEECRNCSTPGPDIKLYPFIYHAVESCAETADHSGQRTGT
Procedure: The ability of compounds to inhibit PARG in response to DNA damage, was assessed with U2OS cells pretreated with the compounds for 1 hour, following a 1-hour treatment with the DNA alkylating agent temozolomide (TMZ). […] The cells were incubated for 2 hours at room temperature with a mouse monoclonal antibody against poly (ADP) ribose (PAR) polymer. The cells were washed and incubated with an anti-mouse Alexa-488 conjugated secondary antibody for 1 hour at room temperature. Propidium iodide staining was used to determine DNA content in the cells (staining at 4° C. overnight). The fluorescence intensity of the cells was assessed by flow cytometry (Cytoflex from Beckmann) and the percentage of PAR chain positive cells (gated in relation to TMZ+DMSO treated control) was determined. PAR chain positive cells % were fit against the concentration of the compound using a 4 parameter log-logistic function, generating PAR chain EC50 values: […]

[1] = Homo sapiens, NCI-H460, 96 h, 96 hours incubation

Structure (SMILES)	IC50 (human PARG)	EC50 (U2OS cells; Homo sapiens, U2OS, 96 h)	EC50 (NCIH-460 cells; [1])	EC50 (U2OS cells)	EC50 (NCIH-460 cells; 96 hours incubation)	EC50 (U2OS cells; Homo sapiens)	EC50 (NCIH-460 cells; Homo sapiens, NCI-H460, 96 hours incubation)	EC50 (PARG)
CC1CN(c2cc(S(=O)(=O)NC3(C)CC3)cn3c(-c4nnc(C(F)F)s4)ncc23)CC2(CC2)N1 (centres unmarked) [Example 10, 3-(5-(difluoromethyl)-1,3,4-thiadiazol-2-yl)-8-(5-methyl-4,7-diazaspiro[2.5]octan-7-yl)-N-(1-methylcyclopropyl)imidazo[1,5-a]pyridine-6-sulfonamide formate]	0.011 µM	> 20 µM	0.418 µM	–	–	–	–	–
CN=S1(=O)CCN(c2cc(S(=O)(=O)NC3(C)CC3)cn3c(-c4nnc(C(F)F)s4)ncc23)CC1C (stereo not drawn) [Example 5, (Trans or Cis)-3-(5-(difluoromethyl)-1,3,4-thiadiazol-2-yl)-8-(2-methyl-1-(methylimino)-1-oxido-116-thiomorpholino)-N-(1-methylcyclopropyl)imidazo[1,5-a]pyridine-6-sulfonamide]	–	–	–	> 20 µM	0.208 µM	–	–	–
CC1(NS(=O)(=O)c2cc(C3=CCNCC3(F)F)c3c(Cl)nc(-c4nnc(C(F)F)s4)n3c2)CC1 [Example 2, 1-chloro-8-(3,3-difluoro-1,2,3,6-tetrahydropyridin-4-yl)-3-(5-(difluoromethyl)-1,3,4-thiadiazol-2-yl)-N-(1-methylcyclopropyl)imidazo[1,5-a]pyridine-6-sulfonamide]	0.011 µM	13.3 µM	0.199 µM	–	–	–	–	–
CC1(C)CN(c2cc(S(=O)(=O)NC3(C)CC3)cn3c(-c4nnc(C(F)F)s4)ncc23)CC(CO)N1 (single isomer, unassigned) [Example 14a, (R or S)-3-(5-(difluoromethyl)-1,3,4-thiadiazol-2-yl)-8-(5-(hydroxymethyl)-3,3-dimethylpiperazin-1-yl)-N-(1-methylcyclopropyl)imidazo[1,5-a]pyridine-6-sulfonamide]	0.015 µM	> 11.9 µM	–	–	1.79 µM	–	–	–
CC1(NS(=O)(=O)c2cc(C3=CCNCC3)c3c(C4CC4)nc(-c4nnc(C(F)F)s4)n3c2)CC1 [Example 11, 1-cyclopropyl-3-(5-(difluoromethyl)-1,3,4-thiadiazol-2-yl)-N-(1-methylcyclopropyl)-8-(1,2,3,6-tetrahydropyridin-4-yl)imidazo[1,5-alpyridine-6-sulfonamide formate]	0.016 µM	–	–	–	–	1720 µM	0.074 µM	0.009 µM
COC[C@H]1CN(c2cc(S(=O)(=O)NC3(C)CC3)cn3c(-c4nnc(C(F)F)s4)ncc23)C[C@H](COC)N1 [Example 3, 8-((3R,5R)-3,5-bis(methoxymethyl)piperazin-1-yl)-3-(5-(difluoromethyl)-1,3,4-thiadiazol-2-yl)-N-(1-methylcyclopropyl)imidazo[1,5-a]pyridine-6-sulfonamide formate]	0.012 µM	> 11 µM	0.019 µM	–	–	–	–	–
CN=S1(=O)CCN(c2cc(S(=O)(=O)NC3(C)CC3)cn3c(-c4nnc(C(F)F)s4)ncc23)CC1C (stereo not drawn) [Example 4, (Cis or Trans)-3-(5-(difluoromethyl)-1,3,4-thiadiazol-2-yl)-8-(2-methyl-1-(methylimino)-1-oxido-116-thiomorpholino)-N-(1-methylcyclopropyl)imidazo[1,5-a]pyridine-6-sulfonamide]	0.011 µM	> 20 µM	0.111 µM	–	–	–	–	–
C[C@H]1CN(c2cc(S(=O)(=O)NC3(C)CC3)cn3c(-c4nnc(C(F)F)s4)cnc23)C[C@H](C)N1 [Example 1, 3-(5-(difluoromethyl)-1,3,4-thiadiazol-2-yl)-8-((3S,5S)-3,5-dimethylpiperazin-1-yl)-N-(1-methylcyclopropyl)imidazo[1,2-a]pyridine-6-sulfonamide formate]	0.011 µM	12.6 µM	0.07 µM	–	–	–	–	–
CC1(C)CN(c2cc(S(=O)(=O)NC3(C)CC3)cn3c(-c4nnc(C(F)F)s4)ncc23)CC(CO)N1 (centres unmarked) [Example 14, 3-(5-(difluoromethyl)-1,3,4-thiadiazol-2-yl)-8-(5-(hydroxymethyl)-3,3-dimethylpiperazin-1-yl)-N-(1-methylcyclopropyl)imidazo[1,5-a]pyridine-6-sulfonamide]	0.011 µM	9.52 µM	0.094 µM	–	–	–	–	–
CC1(NS(=O)(=O)c2cc(C3=CCNCC3)c3c(C(F)(F)F)nc(-c4nnc(C(F)F)s4)n3c2)CC1 [Example 12, 3-(5-(difluoromethyl)-1,3,4-thiadiazol-2-yl)-N-(1-methylcyclopropyl)-8-(1,2,3,6-tetrahydropyridin-4-yl)-1-(trifluoromethyl)imidazo[1,5-a]pyridine-6-sulfonamide formate]	0.011 µM	3.87 µM	0.094 µM	–	–	–	–	0.006 µM
C[C@H]1CN(c2cc(S(=O)(=O)NC3(C)CC3)cn3c(-c4nnc(C(F)F)s4)nc(F)c23)C[C@H](C)N1 [Example 13, 3-(5-(difluoromethyl)-1,3,4-thiadiazol-2-yl)-8-((3S,5S)-3,5-dimethylpiperazin-1-yl)-1-fluoro-N-(1-methylcyclopropyl)imidazo[1,5-a]pyridine-6-sulfonamide]	0.016 µM	3.59 µM	0.035 µM	–	–	–	–	0.005 µM
CC1(C)CN(c2cc(S(=O)(=O)NC3(C)CC3)cn3c(-c4nnc(C(F)F)s4)ncc23)CC(CO)N1 (single isomer, unassigned) [Example 14b, (S or R)-3-(5-(difluoromethyl)-1,3,4-thiadiazol-2-yl)-8-(5-(hydroxymethyl)-3,3-dimethylpiperazin-1-yl)-N-(1-methylcyclopropyl)imidazo[1,5-a]pyridine-6-sulfonamide]	0.012 µM	–	–	> 11.4 µM	0.0774 µM	–	–	–
